The target in assay [1] is KRAS G12C (Homo sapiens, UniProt P01116, G12C). The assay is described as follows: GDP-GTP exchange assay (KRAS_G12C exchange). Format: biochemical. The following applies: bodipy-GDP loaded KRAS G12C 2.5 nM, SOS1 150 nM, GppNHp; 2 hours pre-incubation, 2 hours reaction; read-out: G12C_exchange. The procedure, abridged:
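Fluorescence exchange of bodipy-GDP for GppNHp, SOS1-driven, read at 485/520 nm; IC50 from four-parameter variable-slope fit. Both mutants used 2.5 nM final labelled protein and a 2 h compound pre-incubation. G12C reaction had 500 uM GppNHp and 150 nM SOS1 for 2 h; G12D ran 4 h.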

For assay [2], the system named is MIA PaCa-2 (KRAS G12C) cells. The assay is described as follows: Cellular pERK HTRF assay (KRAS_G12C pERK). Format: cell-based, human. The note with it: Homo sapiens, MIA PaCa-2, 4 hours incubation, read-out: G12C_pERK. The procedure, abridged: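 Phospho-ERK1/2 HTRF readout (665 and 620 nm) in lysed MIA PaCa-2 cells, antibodies incubated overnight at room temperature. Cells seeded the day before and treated with G12C compounds for 4 h at 37 °C; IC50 fitted to percent inhibition against log inhibitor concentration.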

KRAS G12C, sequence (P01116 1-188 isoform P01116-2 G12C): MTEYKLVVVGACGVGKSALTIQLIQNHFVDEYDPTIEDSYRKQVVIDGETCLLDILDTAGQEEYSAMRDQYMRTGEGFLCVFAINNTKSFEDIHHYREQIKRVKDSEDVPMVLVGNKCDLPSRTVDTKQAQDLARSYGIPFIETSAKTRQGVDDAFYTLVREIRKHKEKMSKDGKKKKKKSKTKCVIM

On to `C=CC(=O)N1CC[C@H](n2cnc3c(N4CC(N(C)C)C4)nc4c(F)c(-c5cc(O)cc6ccccc56)c(Cl)cc4c32)C[C@H]1C#N` [Example 22, (2S,4S)-1-acryloyl-4-(8-chloro-4-(3-(dimethylamino)azetidin-1-yl)-6-fluoro-7-(3-hydroxynaphthalen-1-yl)-1H-imidazo[4,5-c]quinolin-1-yl)piperidine-2-carbonitrile], for which the IC50 in assay [1] and in assay [2] was at most 100 nM in each case.

Regarding `C=CC(=O)N1CCC(n2cnc3c(N4CC(N(C)C)C4)nc4c(F)c(-c5cc(O)cc6ccccc56)c(Cl)cc4c32)CC1` [Example 9, 1-(4-(8-chloro-4-(3-(dimethylamino)azetidin-1-yl)-6-fluoro-7-(3-hydroxy-naphthalen-1-yl)-1H-imidazo[4,5-c]quinolin-1-yl)piperidin-1-yl)prop-2-en-1-one], the results for the IC50 in assay [1] and in assay [2] were at most 100 nM and 100 to 1000 nM, respectively.

With `C=CC(=O)N1CC[C@H](n2cnc3c(N4CC(N(C)C)C4)nc4c(F)c(-c5ccc(F)c6cccnc56)c(C(F)(F)F)cc4c32)C[C@H]1CC#N` [Example 229, 2-((2S,4S)-1-acryloyl-4-(4-(3-(dimethylamino)azetidin-1-yl)-6-fluoro-7-(5-fluoroquinolin-8-yl)-8-(trifluoromethyl)-1H-imidazo[4,5-c]quinolin-1-yl)piperidin-2-yl)acetonitrile], the IC50 in assay [1] and in assay [2] was at most 100 nM throughout.

Take `C=CC(=O)N1CCC(n2cnc3c(OC[C@@H]4CCCN4C)nc4c(F)c(-c5cc(O)cc6ccccc56)c(Cl)cc4c32)CC1` (single isomer, unassigned) [Example 1a]: the IC50 in assay [1] is at most 100 nM; in assay [2] it was 100 to 1000 nM.

For the compound `C=CC(=O)N1CC[C@H](n2nnc3c(N4CC(C)(N(C)C)C4)nc4c(F)c(-c5c(C)c(F)cc6[nH]ncc56)c(C)cc4c32)C[C@H]1CC#N` [Example 202a, 2-((2S,4S)-1-acryloyl-4-(4-(3-(dimethylamino)-3-methylazetidin-1-yl)-6-fluoro-7-(6-fluoro-5-methyl-1H-indazol-4-yl)-8-methyl-1H-[1,2,3]triazolo[4,5-c]quinolin-1-yl)piperidin-2-yl)acetonitrile], the IC50 in assay [1] and in assay [2] was at most 100 nM in each case.

`C=CC(=O)N1CC[C@H](n2nnc3c(N4CC(N(C)C)C4)nc4c(F)c(-c5cccc(Cl)c5Cl)c(Cl)cc4c32)C[C@H]1CC#N` [Example 113, 2-((2S,4S)-1-acryloyl-4-(8-chloro-7-(2,3-dichlorophenyl)-4-(3-(dimethylamino)azetidin-1-yl)-6-fluoro-1H-[1,2,3]triazolo[4,5-c]quinolin-1-yl)piperidin-2-yl)acetonitrile]: the IC50 in assay [1] and in assay [2] was at most 100 nM each time.

Regarding `CN(C)C/C=C/C(=O)N1CC[C@H](n2cnc3c(N4CC(N(C)C)C4)nc4c(F)c(-c5cncc6ccccc56)c(Cl)cc4c32)C[C@H]1CC#N` [Example 175, 2-((2S,4S)-4-(8-chloro-4-(3-(dimethylamino)azetidin-1-yl)-6-fluoro-7-(isoquinolin-4-yl)-1H-imidazo[4,5-c]quinolin-1-yl)-1-((E)-4-(dimethylamino)but-2-enoyl)piperidin-2-yl)acetonitrile], the IC50 in assay [1] and in assay [2] was at most 100 nM throughout.

As for `C=CC(=O)N1CC[C@H](n2cnc3c(N4CC(N(C)C)C4)nc4c(F)c(-c5cccc6c5OCCC6)c(Cl)cc4c32)C[C@H]1CC#N` [Example 65, 2-((2S,4S)-1-acryloyl-4-(8-chloro-7-(chroman-8-yl)-4-(3-(dimethylamino)-azetidin-1-yl)-6-fluoro-1H-imidazo[4,5-c]quinolin-1-yl)piperidin-2-yl)acetonitrile], the IC50 in assay [1] and in assay [2] was at most 100 nM in each case.

Regarding `C=CC(=O)N1CC[C@H](n2cnc3c(N4CC(N(C)C)C4)nc4c(F)c(-c5cccc6cnccc56)c(Cl)cc4c32)C[C@H]1CC#N` (single isomer, unassigned) [Example 70a], the IC50 in assay [1] and in assay [2] was at most 100 nM each time.

Take `C=CC(=O)N1CC[C@H](n2nnc3c(N4CC(C)(N(C)C)C4)nc4c(F)c(-c5cccc(Cl)c5C)c(C(F)(F)F)cc4c32)C[C@H]1CC#N` (single isomer, unassigned) [Example 238a]: the IC50 in assay [1] and in assay [2] was at most 100 nM throughout.

With `Cc1cccc(-c2c(C)cc3c(nc(-n4ccnc4C)c4nnn([C@H]5CCN(C(=O)/C=C/CN(C)C)[C@H](CC#N)C5)c43)c2F)c1Cl` [Example 252, 2-((2S,4S)-4-(7-(2-chloro-3-methylphenyl)-6-fluoro-8-methyl-4-(2-methyl-1H-imidazol-1-yl)-1H-[1,2,3]triazolo[4,5-c]quinolin-1-yl)-1-((E)-4-(dimethylamino)but-2-enoyl)piperidin-2-yl)acetonitrile], the IC50 in assay [1] and in assay [2] was at most 100 nM in each case.

Regarding `Cc1c(Cl)cc2[nH]ncc2c1-c1c(Cl)cc2c(nc(N3CC(N(C)C)C3)c3ncn([C@H]4CCN(C(=O)/C=C/CN(C)C)[C@H](CC#N)C4)c32)c1F` [Example 176, 2-((2S,4S)-4-(8-chloro-7-(6-chloro-5-methyl-1H-indazol-4-yl)-4-(3-(dimethylamino)-azetidin-1-yl)-6-fluoro-1H-imidazo[4,5-c]quinolin-1-yl)-1-((E)-4-(dimethylamino)but-2-enoyl)piperidin-2-yl)acetonitrile], the IC50 in assay [1] and in assay [2] was at most 100 nM in each case.

With `CC#CC(=O)N1CC[C@H](n2nnc3c(OC[C@@H]4CCCN4C)nc4c(F)c(-c5cccc(Cl)c5OC)c(CCC#N)cc4c32)C[C@H]1CC#N` [Example 204, 3-(1-((2S,4S)-1-(but-2-ynoyl)-2-(cyanomethyl)piperidin-4-yl)-7-(3-chloro-2-methoxyphenyl)-6-fluoro-4-(((S)-1-methylpyrrolidin-2-yl)methoxy)-1H-[1,2,3]triazolo[4,5-c]quinolin-8-yl)propanenitrile], the IC50 in assay [1] and in assay [2] was at most 100 nM throughout.

`C=CC(=O)N1CCC(n2cnc3c(OC[C@@H]4CCCN4C)nc4c(F)c(-c5cccc6c5CCC6)c(Cl)cc4c32)CC1CC#N` (mixture of isomers) [Example 44, 2-(1-acryloyl-4-(8-chloro-7-(2,3-dihydro-1H-inden-4-yl)-6-fluoro-4-(((S)-1-methylpyrrolidin-2-yl)methoxy)-1H-imidazo[4,5-c]quinolin-1-yl)piperidin-2-yl)acetonitrile]: the IC50 in assay [1] and in assay [2] was at most 100 nM throughout.

On to `C=CC(=O)N1CCC(n2nnc3c(N4CC(C)(N(C)C)C4)nc4c(F)c(-c5cccc6cccc(C#N)c56)c(Cl)cc4c32)C[C@H]1CC#N` (single isomer, unassigned) [Example 220a], for which the IC50 in assay [1] and in assay [2] was at most 100 nM throughout.

For the compound `C=CC(=O)N1CC[C@H](n2nnc3c(OC[C@@H]4CCCN4C)nc4c(F)c(-c5cccc(C)c5Cl)c(C)cc4c32)C[C@H]1CC#N` [Example 251, 2-((2S,4S)-1-acryloyl-4-(7-(2-chloro-3-methylphenyl)-6-fluoro-8-methyl-4-(((S)-1-methylpyrrolidin-2-yl)methoxy)-1H-[1,2,3]triazolo[4,5-c]quinolin-1-yl)piperidin-2-yl)acetonitrile], the IC50 in assay [1] and in assay [2] was at most 100 nM each time.

With `C=CC(=O)N1CC[C@H](n2cnc3c(N4CC(N(C)C)C4)nc4c(F)c(-c5cccc(C)c5C(F)(F)F)c(Cl)cc4c32)C[C@H]1CC#N` [Example 264, 2-((2S,4S)-1-acryloyl-4-(8-chloro-4-(3-(dimethylamino)azetidin-1-yl)-6-fluoro-7-(3-methyl-2-(trifluoromethyl)phenyl)-1H-imidazo[4,5-c]quinolin-1-yl)piperidin-2-yl)acetonitrile], the IC50 in assay [1] and in assay [2] was at most 100 nM each time.

`C=CC(=O)N1CC[C@H](n2nnc3c(OC[C@@H]4CCCN4C)nc4c(F)c(-c5cccc(Cl)c5C)c(Cl)cc4c32)C[C@H]1CC#N` [Example 86, 2-((2S,4S)-1-acryloyl-4-(8-chloro-7-(3-chloro-2-methylphenyl)-6-fluoro-4-(((S)-1-methylpyrrolidin-2-yl)methoxy)-1H-[1,2,3]triazolo[4,5-c]quinolin-1-yl)piperidin-2-yl)acetonitrile]: the IC50 in assay [1] and in assay [2] was at most 100 nM in each case.

Take `C=CC(=O)N1CC[C@H](n2nnc3c(N4CC(N(C)C)C4)nc4cc(-c5cccc(Cl)c5C)c(C)cc4c32)C[C@H]1CC#N` [Example 172, 2-((2S,4S)-1-acryloyl-4-(7-(3-chloro-2-methylphenyl)-4-(3-(dimethylamino)azetidin-1-yl)-8-methyl-1H-[1,2,3]triazolo[4,5-c]quinolin-1-yl)piperidin-2-yl)acetonitrile]: the IC50 in assay [1] and in assay [2] was at most 100 nM each time.

`C=CC(=O)N1CCC(n2nnc3c(N4CC(C)(N(C)C)C4)nc4c(F)c(-c5cccc6cccc(Cl)c56)c(C)cc4c32)C[C@H]1CC#N` (stereo partly drawn) [Example 225, 2-((2S)-1-acryloyl-4-(7-(8-chloronaphthalen-1-yl)-4-(3-(dimethylamino)-3-methylazetidin-1-yl)-6-fluoro-8-methyl-1H-[1,2,3]triazolo[4,5-c]quinolin-1-yl)piperidin-2-yl)acetonitrile]: the IC50 in assay [1] and in assay [2] was at most 100 nM throughout.

Consider `C=CC(=O)N1CC[C@H](n2nnc3c(OC[C@@H]4CCCN4C)nc4c(Cl)c(-c5cccc(Cl)c5C)c(Cl)cc4c32)C[C@H]1CC#N` [Example 287, 2-((2S,4S)-1-acryloyl-4-(6,8-dichloro-7-(3-chloro-2-methylphenyl)-4-(((S)-1-methylpyrrolidin-2-yl)methoxy)-1H-[1,2,3]triazolo[4,5-c]quinolin-1-yl)piperidin-2-yl)acetonitrile], for which the IC50 in assay [1] and in assay [2] was at most 100 nM each time.

The record behind these values is patent US20210269434A1, “TRICYCLIC COMPOUNDS AS INHIBITORS OF KRAS” (Incyte Corporation, priority 2020, published 2021).
